{
  "source": "paper PMC5866590",
  "about": "(Proceedings of the National Academy of Sciences of the …, 2018)",
  "molecular_target": "T1, FmlHLD (Escherichia coli, UniProt Q1RBS0)",
  "T1 sequence (Q1RBS0 25-184)": "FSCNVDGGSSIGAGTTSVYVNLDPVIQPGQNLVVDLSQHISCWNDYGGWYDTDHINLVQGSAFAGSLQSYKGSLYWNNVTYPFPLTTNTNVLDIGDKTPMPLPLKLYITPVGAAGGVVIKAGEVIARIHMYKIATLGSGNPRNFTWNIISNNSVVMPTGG",
  "type": "binding, Escherichia coli (UPEC strain UTI89)",
  "conditions": "for Percent inhibition (PI100) of FmlHLD binding to ds-BSM: mean with SEM in Table S2",
  "key": {"[1]": {"conditions": "Fig. 1B: 1 mM or 0.1 mM compounds"}},
  "note": "Where two headings read alike, the source gives them in different places.",
  "data": [
    {"smiles": "CC(C)S[C@@H]1O[C@H](CO)[C@H](O)[C@H](O)[C@H]1O", "note": "[36β-thio, isopropyl β-thiogalactoside, reference compound]", "values": [
      {"measurement": "Inhibition of FmlHLD binding to ds-BSM (in words)", "setting": "compound at 100 μM", "result": "minor inhibitory activity"}
    ]},
    {"smiles": "O=c1ccc2nc3ccc(O[C@@H]4O[C@H](CO)[C@H](O)[C@H](O)[C@H]4O)cc3oc-2c1", "note": "[15β]", "values": [
      {"measurement": "Percent inhibition (PI100) of FmlHLD binding to ds-BSM", "setting": "compound at 100 μM, 100 µM", "result": 80, "unit": "%"}
    ]},
    {"smiles": "OC[C@H]1OC(O)[C@H](O)[C@@H](O)[C@@H]1O", "note": "(stereo partly drawn) [Glc, glucose, reference compound]", "values": [
      {"measurement": "Inhibition of FmlHLD binding to ds-BSM (in words)", "setting": "[1]", "result": "neither Man nor glucose (Glc) had any detectable effect"}
    ]},
    {"smiles": "O=c1c(O[C@@H]2O[C@H](CO)[C@H](O)[C@H](O)[C@H]2O)c(-c2ccc(O)c(O)c2)oc2cc(O)cc(O)c12", "note": "[26β, quercetin galactoside]", "values": [
      {"measurement": "Percent inhibition (PI100) of FmlHLD binding to ds-BSM", "setting": "compound at 100 μM, 100 µM", "result": 14, "unit": "%"}
    ]},
    {"smiles": "CC(=O)N[C@@H]1[C@@H](O[C@@H]2O[C@H](CO)[C@H](O)[C@H](O)[C@H]2O)[C@@H](O)[C@@H](CO)O[C@@H]1O", "note": "[TF, Gal(β1-3)GalNAc(α), reference compound]", "values": [
      {"measurement": "Inhibition of FmlHLD binding to ds-BSM (in words)", "setting": "compound at 1 mM", "result": "capable of inhibiting FmlHLD"}
    ]},
    {"smiles": "OC[C@H]1O[C@@H](Oc2ccccc2)[C@H](O)[C@@H](O)[C@H]1O", "note": "[1β, phenyl β-galactoside]", "values": [
      {"measurement": "Percent inhibition (PI100) of FmlHLD binding to ds-BSM", "setting": "compound at 100 μM, 100 µM", "result": 77, "unit": "%"}
    ]},
    {"smiles": "OC[C@H]1O[C@@H](Oc2cc3c(O)cc(O)cc3[o+]c2-c2ccc(O)c(O)c2)[C@H](O)[C@@H](O)[C@H]1O", "note": "[24β, cyanidin galactoside]", "values": [
      {"measurement": "Percent inhibition (PI100) of FmlHLD binding to ds-BSM", "setting": "compound at 100 μM, 100 µM", "result": 29, "unit": "%"}
    ]},
    {"smiles": "CC(=O)N[C@H]1C(O)O[C@H](CO)[C@H](O)[C@@H]1O", "note": "(mixture of isomers) [GalNAc, N-acetylgalactosamine, reference compound]", "values": [
      {"measurement": "Inhibition of FmlHLD binding to ds-BSM (in words)", "setting": "compound at 1 mM", "result": "capable of inhibiting FmlHLD"}
    ]},
    {"smiles": "OC[C@H]1O[C@@H](O[C@H]2[C@H](O)[C@@H](O)C(O)O[C@@H]2CO)[C@H](O)[C@@H](O)[C@H]1O", "note": "(stereo partly drawn) [Lac, Gal(β1-4)Glc, reference compound]", "values": [
      {"measurement": "Inhibition of FmlHLD binding to ds-BSM (in words)", "setting": "[1]", "result": "incapable of inhibiting FmlHLD"}
    ]},
    {"smiles": "OC[C@H]1OC(O)[C@@H](O)[C@@H](O)[C@@H]1O", "note": "(stereo partly drawn) [Man, mannose, reference compound]", "values": [
      {"measurement": "Inhibition of FmlHLD binding to ds-BSM (in words)", "setting": "[1]", "result": "neither Man nor glucose (Glc) had any detectable effect"}
    ]},
    {"smiles": "O=C[C@H](O)[C@@H](O)[C@@H](O)[C@H](O)CO", "note": "[Gal, galactose, reference compound]", "values": [
      {"measurement": "Inhibition of FmlHLD binding to ds-BSM (in words)", "setting": "compound at 1 mM", "result": "capable of inhibiting FmlHLD"}
    ]},
    {"smiles": "COc1cc(-c2[o+]c3cc(O)cc(O)c3cc2O[C@@H]2O[C@H](CO)[C@H](O)[C@H](O)[C@H]2O)ccc1O", "note": "[25β]", "values": [
      {"measurement": "Percent inhibition (PI100) of FmlHLD binding to ds-BSM", "setting": "compound at 100 μM", "result": 3.6, "unit": "%"}
    ]}
  ]
}
